# Assay results taken from US7326725B2, “Fungicidal composition based on at least one pyridylmethylbenzamide derivatives and at least on dithiocarbamate derivative” (Bayer Cropscience S.A., priority 2001, dated 2008).
# System: Plasmopara viticola
# Assay: Curative test of 24 hours on grapevine infected with Plasmopara viticola
# Type: in vivo
# Details: single compound, curative spray on Chardonay grapevine, assessed after six days at 20° C.
# Experimental: The trials consisted in curative tests of 24 hours on grapevine infected with Plasmopara viticola.
# Grapevine (Chardonay variety) plants are grown on sandy soil in plastic pots, with one plant per pot. The plants which are two months old (6- to 7-leaf stage) are inoculated by spraying an aqueous suspension of Plasmopara viticola sporocysts obtained from infected leaves. The concentration of sporocysts is about 100 000 units per ml.
# After infection, the inoculated plants are subjected to a curative treatment by spraying with compound (I) alone and compound (II) alone, and with a mixture of compound (I) and compound (II), in each case applied at a dose of 500 l/ha.
# After infection and curative treatment, the plants are covered and left for six days at 20° C.
# The percentage control of the disease (efficacy: see below) is calculated for each treatment with reference to the untreated plants and the expected results are calculated using the Colby formula (see below).
# The difference between the real results and the expected results is used to determine the synergy between the two fungicidal compounds of the composition according to the invention.
# The efficacy of the treatment is calculated using the following Abbott formula: […]
# Analysis of the results is carried out using the Colby model:
# [formula] in which E represents the expected percentage of inhibition of the disease for the combination of the two fungicides at defined doses (for example equal to x and y respectively), x is the percentage of inhibition observed for the disease by the compound (I) at a defined dose (equal to x), y is the percentage of inhibition observed for the disease by the compound (II) at a defined dose (equal to y). When the percentage of inhibition observed for the combination is greater than E, there is a synergistic effect.
Compound,Percentage efficacy (level 1 ppm) [%],Percentage efficacy (level 10 ppm) [%],Percentage efficacy (level 25 ppm) [%],Percentage efficacy (level 0.1 ppm) [%],Percentage efficacy (level 5 ppm) [%]
mancozeb,23.1,5.2,17.2,,
"O=C(NCc1ncc(C(F)(F)F)cc1Cl)c1c(Cl)cccc1Cl [(Ia), 2,6-dichloro-N-{[3-chloro-5-(trifluoromethyl)-2-pyridinyl]methyl}-benzamide]",58.2,,,11.9,65.7
